Source: paper PMC3841161, “De Novo Design and Synthesis of Ultra-Short Peptidomimetic Antibiotics Having Dual Antimicrobial and Anti-Inflammatory Activities” (PLoS ONE, 2013)

Tests used:
[1] = Hydrophobicity by RP-HPLC retention time; type: physicochemical; settings: measure of hydrophobicity; Vydac C18 analytical column 5 µm, 4.6 mm ×250 mm; linear gradient 0–90% acetonitrile in water, 0.05% TFA, 60 min
Excerpt: A series of Trp (W)/Arg (R)–rich peptides [(WR)3-NH2, (WR)2-NH2 and RWR-NH2], reported as being short and potent antimicrobial peptides, were used as sequence templates, and their antimicrobial and hemolytic activities were compared to seven HDAMPs (Figure 2). Matrix-assisted laser-desorption ionization time-of-flight mass spectrometry (MALDI-TOF MS) was used to verify the molecular weight of both Trp/Arg-rich AMPs and the seven HDAMPs. Human cathelicidin LL-37, a potent antimicrobial and anti-inflammatory peptide, served as a positive control for comparing the antimicrobial, hemolytic, and anti-inflammatory activities. The hydrophobicity of all of the peptides was measured with the use of reverse-phase high-performance liquid chromatography (RP-HPLC) retention time (Rt).
All peptides were prepared by Fmoc SPPS methods using Rink amide with an initial loading of 0.61 mmol/g, unless otherwise noted. Fmoc-Arg(Pbf)-OH and other Fmoc-protected amino acids were purchased from Novabiochem. Resins were swollen in DMF for 45 min prior to synthesis. […] The final purity and hydrophobicity of the peptides (>98%) were assessed by RP-HPLC on an analytical Vydac C18 column (4.6 mm ×25 0 mm, 300 Å, 5 µm particle size, Table 3). The molecular masses of purified peptides were determined using MALDI-TOF MS (Shimadzu, Japan).

[2] = test system: trypsin; test: Protease stability by radial diffusion assay; type: in vitro ADME; settings: 5 µL of 10 mg/mL peptide in 25 µL of 0.2-µg/mL trypsin in PBS, 37°C, text: 24 h, method: 6 h
Description: E. coli (KCTC 1682) was grown overnight for 18 h at 37°C in 10 mL of LB broth, and then 10 µl of this culture was inoculated into 10 mL of fresh LB and incubated for an additional 3 h at 37°C to obtain mid-logarithmic-phase organisms. For the radial diffusion assay method, a bacteria suspension (2×10^6 CFU/mL in LB) was mixed with 0.7% agarose. The mixture was poured into a 10-cm petri dish after rapidly dispersing. Five microliters of an aqueous peptide stock solution (10 mg/mL) were added to 25 µL of the 0.2-µg/mL trypsin solution in PBS, respectively, and incubated at 37°C for 6 h. The reaction was stopped by freezing with liquid nitrogen, and then 10-µL aliquots were placed in each circle paper (≈6 mm in diameter) put on the agarose plates and then incubated at 37°C overnight. The diameters of the bacterial clearance zones surrounding the circle paper were measured for the quantitation of inhibitory activities.

[3] = test system: four bacterial strains (E. coli, P. aeruginosa, S. epidermidis, S. aureus); type: cell-based; settings: 20 h
Description: (§1) The prokaryotic selectivity of our designed HDAMPs is defined by the therapeutic index (TI) as a measure of the relative safety of the drug. It is a measure of a peptide's capability to differentiate any pathogen from a host cell. The TI value of each peptide was calculated as the ratio of the HC10 (the peptide concentration that produces 10% hemolysis toward hRBCs) to the geometric mean [GM; the geometric mean of the minimal inhibitory concentration (MIC) against four selected bacterial strains]. Larger values of TI correspond to greater prokaryotic selectivity.
(§2) The antimicrobial activity of the peptides against two Gram-positive bacterial strains and two Gram-negative bacterial strains was examined using the broth microdilution method in sterile 96-well plates. Aliquots (100 µL) of a bacterial suspension at 2×10^6 colony-forming units (CFU)/mL in 1% peptone were added to 100 µL of the peptide solution (serial two-fold dilutions in 1% peptone). After incubation for 18−20 h at 37°C, bacterial growth inhibition was determined by measuring the absorbance at 600 nm with a Microplate Autoreader EL 800 (Bio-Tek Instruments, VT). The minimal inhibitory concentration (MIC) was defined as the minimum peptide concentration inhibited bacteria growth. Two types of Gram-positive bacteria (S. epidermidis [KCTC 1917] and S. aureus [KCTC 1621]) and two types of Gram-negative bacteria (E. coli [KCTC 1682] and P. aeruginosa [KCTC 1637]) were procured from the Korean Collection for Type Cultures (KCTC) at the Korea Research Institute of Bioscience and Biotechnology (KRIBB). MRSA samples (CCARM 3089, CCARM 3090, and CCARM 3095) were obtained from the Culture Collection of Antibiotic-Resistant Microbes (CCARM) at Seoul Women's University (Seoul, Korea).

[4] = test system: P. aeruginosa [KCTC 1637]; type: cell-based, Pseudomonas aeruginosa; settings: KCTC 1637, 20 h
Description: as §2

[5] = test system: trypsin; test: Protease stability by RP HPLC; type: in vitro ADME; settings: 5 µL of 10 mg/mL peptide in 25 µL of 0.2-µg/mL trypsin in PBS, 37°C, 0, 0.5, 1.0, 2.0 and 4 h; C18 RP-HPLC, 224 nm
Description: Five microliters of an aqueous peptide stock solution (10 mg/mL) were added to 25 µL of the 0.2-µg/mL trypsin solution in PBS, respectively, and incubated at 37°C for 0, 0.5, 1.0, 2.0, and 4 h. The 5-µL solution was taken out at each time interval and immediately frozen with liquid nitrogen. Individually thawed samples were loaded onto a C18 reverse-phase column for HPLC analysis (5 µm; 4.6 mm ×250 mm; Vydac). Peptides were eluted by a 60-min linear gradient of 0–90% (v/v) acetonitrile in water containing 0.05% (v/v) trifluoroacetic acid with a flow rate of 1 mL/min and detection of 224 nm.

[6] = test system: E. coli [KCTC 1682]; type: cell-based, Escherichia coli; settings: KCTC 1682, 20 h
Description: as §2

[7] = test system: MRSA 3 [CCARM 3095]; type: cell-based, methicillin-resistant Staphylococcus aureus; settings: CCARM 3095, 20 h
Description: as §2

[8] = test system: MRSA 1 [CCARM 3089]; type: cell-based, methicillin-resistant Staphylococcus aureus; settings: CCARM 3089, 20 h
Description: as §2

[9] = test system: MRSA 2 [CCARM 3090]; type: cell-based, methicillin-resistant Staphylococcus aureus; settings: CCARM 3090, 20 h
Description: as §2

[10] = test system: S. epidermidis [KCTC 1917]; type: cell-based, Staphylococcus epidermidis; settings: KCTC 1917, 20 h
Description: as §2

[11] = test system: hRBCs versus four bacterial strains; test: Prokaryotic selectivity (therapeutic index, HC10/GM); settings: ratio of HC10 to GM; 512 µg/mL used for HC10 >256 and 128 µg/mL for MIC >64
Description: as §1

[12] = test system: S. aureus [KCTC 1621]; type: cell-based, Staphylococcus aureus; settings: KCTC 1621, 20 h
Description: as §2

Row | RP-HPLC retention time (Rt) [1] [min] | SMILES | antimicrobial activity against E. coli (KCTC 1682) in the presence of trypsin (in words) [2] | GM, geometric mean of the MIC values against four bacterial strains [3] | Minimal Inhibitory Concentration (MIC) P. aeruginosa [KCTC 1637] [4] | resistance to proteolysis by trypsin, remaining peptide by RP-HPLC (in words) [5] | Minimal Inhibitory Concentration (MIC) E. coli [KCTC 1682] [6] | Minimal Inhibitory Concentration (MIC) MRSA 3 [CCARM 3095] [7] | Minimal Inhibitory Concentration (MIC) MRSA 1 [CCARM 3089] [8] | Minimal Inhibitory Concentration (MIC) MRSA 2 [CCARM 3090] [9] | Minimal Inhibitory Concentration (MIC) S. epidermidis [KCTC 1917] [10] | TI (HC10/GM), therapeutic index [11] | Minimal Inhibitory Concentration (MIC) S. aureus [KCTC 1621] [12]
1 | 37.7 | N=C(N)NCCC[C@H](NC(=O)[C@H](Cc1c[n+](CCCCCCCc2ccccc2)cn1CCCCCCCc1ccccc1)NC(=O)[C@H](CCCNC(=N)N)NC(=O)[C@@H](N)Cc1c[n+](CCCCCCCc2ccccc2)cn1CCCCCCCc1ccccc1)C(N)=O [Tetrameric HDAMP, His((CH2)7C6H5)2-Arg-His((CH2)7C6H5)2-Arg-NH2] |  |  |  |  |  |  |  |  |  |  | 
2 |  | CC[C@H](C)[C@H](NC(=O)CN)C(=O)NCC(=O)N[C@@H](C)C(=O)N[C@H](C(=O)N[C@@H](CC(C)C)C(=O)N[C@@H](CCCCN)C(=O)N[C@H](C(=O)N[C@@H](CC(C)C)C(=O)N[C@H](C(=O)N[C@H](C(=O)NCC(=O)N[C@@H](CC(C)C)C(=O)N1CCC[C@H]1C(=O)N[C@@H](C)C(=O)N[C@@H](CC(C)C)C(=O)N[C@H](C(=O)N[C@@H](CO)C(=O)N[C@@H](Cc1c[nH]c2ccccc12)C(=O)N[C@H](C(=O)N[C@@H](CCCCN)C(=O)N[C@@H](CCCNC(=N)N)C(=O)N[C@@H](CCCCN)C(=O)N[C@@H](CCCNC(=N)N)C(=O)N[C@@H](CCC(N)=O)C(=O)N[C@@H](CCC(N)=O)C(N)=O)[C@@H](C)CC)[C@@H](C)CC)[C@@H](C)O)[C@@H](C)O)C(C)C)C(C)C [melittin] | completely lost their antimicrobial activities |  |  |  |  |  |  |  |  |  | 
3 |  | CC[C@H](C)[C@H](NC(=O)[C@H](CCCCN)NC(=O)[C@H](CCC(=O)O)NC(=O)[C@H](CCCCN)NC(=O)[C@H](CO)NC(=O)[C@H](CCCCN)NC(=O)[C@H](CCCNC(=N)N)NC(=O)[C@H](Cc1ccccc1)NC(=O)[C@H](Cc1ccccc1)NC(=O)[C@H](CC(=O)O)NC(=O)CNC(=O)[C@H](CC(C)C)NC(=O)[C@@H](N)CC(C)C)C(=O)NCC(=O)N[C@@H](CCCCN)C(=O)N[C@@H](CCC(=O)O)C(=O)N[C@@H](Cc1ccccc1)C(=O)N[C@@H](CCCCN)C(=O)N[C@@H](CCCNC(=N)N)C(=O)N[C@H](C(=O)N[C@H](C(=O)N[C@@H](CCC(N)=O)C(=O)N[C@@H](CCCNC(=N)N)C(=O)N[C@H](C(=O)N[C@@H](CCCCN)C(=O)N[C@@H](CC(=O)O)C(=O)N[C@@H](Cc1ccccc1)C(=O)N[C@@H](CC(C)C)C(=O)N[C@@H](CCCNC(=N)N)C(=O)N[C@@H](CC(N)=O)C(=O)N[C@@H](CC(C)C)C(=O)N[C@H](C(=O)N1CCC[C@H]1C(=O)N[C@@H](CCCNC(=N)N)C(=O)N[C@H](C(=O)N[C@@H](CCC(=O)O)C(=O)N[C@@H](CO)C(=O)O)[C@@H](C)O)C(C)C)[C@@H](C)CC)C(C)C)[C@@H](C)CC [LL-37] | completely lost their antimicrobial activities |  |  |  |  |  |  |  |  |  | 
4 |  | N=C(N)NCCC[C@@H](NC(=O)[C@@H](N)Cc1c[n+](CCCCCCCc2ccccc2)cn1CCCCCCCc1ccccc1)C(N)=O [HDAMP-6] |  | 3.5 (5.3) µg/mL | 4 (6.1) µg/mL | fully resistant | 4 (6.1) µg/mL | 2 (3) µg/mL | 2 (3) µg/mL | 2 (3) µg/mL | 4 (6.1) µg/mL | 8 | 2 (3) µg/mL
5 |  | N=C(N)NCCC[C@H](NC(=O)[C@H](Cc1c[n+](CCCCCCCc2ccccc2)cn1CCCCCCCc1ccccc1)NC(=O)[C@@H](N)CCCNC(=N)N)C(N)=O [HDAMP-1, Arg-His((CH2)7C6H5)2-Arg-NH2] |  | 3.5 (4.3) µg/mL | 4 (4.9) µg/mL | fully resistant | 4 (4.9) µg/mL | 2 (2.5) µg/mL | 2 (2.5) µg/mL | 2 (2.5) µg/mL | 2 (2.5) µg/mL | 10.3 | 4 (4.9) µg/mL
